This is an account of results in patent US9969775B2, “CGRP antagonist peptides” (Ferring B.V., priority 2015, dated 2018).

Read-outs that look alike come from different tables or passages of the source. Numbered stars: 1 amine (or outer) side, 2 acyl side, 3 side chain; on linkers, the order of the positions; unused ones are H or OH. Bridge positions count the residues as written; N and C are the ends. Square brackets hold non-standard residues; d marks the D form. Peptide text beside a SMILES is read from it. * marks the point of attachment. Phe(3-CH2NH2) = O=C([C@H](Cc1cccc(CN[*:3])c1)N[*:1])[*:2]; Phe(2-CONH2) = NC(=O)c1ccccc1C[C@H](N)C(=O)O; Triazol3yl(1,2,4-5-NH2) = Nc1nc(*)n[nH]1; Picolinoyl(3,5-F2) = O=C(c1ncc(F)cc1F)*; Imidazole4carbonyl = O=C(c1cnc[nH]1)*; Lys(iPr) = CC(C)NCCCC[C@H](N)C(=O)O; Picolinoyl(5-F) = O=C(c1ccc(F)cn1)*; Lys(Me2) = CN(C)CCCC[C@H](N)C(=O)O; Orn(iPr) = CC(C)NCCC[C@H](N)C(=O)O; Oxazole2carbonyl = O=C(c1ncco1)*; 3Pal = N[C@@H](Cc1cccnc1)C(=O)O; ΔPro = O=C(O)[C@@H]1C=CCN1; Orn = NCCC[C@H](N)C(=O)O; Dab = NCC[C@H](N)C(=O)O; X12 = Cc1cccnc1C(=O)*; X9 = Nc1cccnc1C(=O)*; X6 = O=C(c1ccncn1)*

Assay [1] addresses T1, hAM2 receptor (CALCRL:RAMP3) (Homo sapiens, UniProt O60896+Q16602).
T1 construct: expressed in transfected cells; host or cells: GeneBLAzer CALCRL:RAMP3-CRE-bla Freestyle 293F
Nature of the assay: AM2 receptor antagonist activity measured by cAMP assay (HTRF). It counts as cell-based. Conditions: for Emax: read-out: hAM2-R Efficacy Antag (%) Ave; for IC50: GeneBLAzer CALCRL:RAMP3-CRE-bla Freestyle 293F cells; for selectivity ratio CGRP/AM2: selectivity ratio for hCGRP over hAM2, calculated from the IC50 values.

In assay [2] the target is T2, hCGRP receptor (CALCRL:RAMP1) (Homo sapiens, UniProt O60894+Q16602).
T2 construct: host or cells: GeneBLAzer CALCRL:RAMP1-CRE-bla Freestyle 293F
Nature of the assay: CGRP receptor antagonist activity measured by cAMP assay (HTRF). It counts as cell-based. The conditions noted are these: for Emax: read-out: hCGRP-R Efficacy Antag (%) Ave; for IC50: GeneBLAzer CALCRL:RAMP1-CRE-bla Freestyle 293F cells, 30 minutes.

Setting [3] is: % MPE: percent of the maximal possible effect, agonist human adrenomedullin.
Setting [4] is: agonist human adrenomedullin, read-out: hAM2-R IC50 Ave.
[5] abbreviates: % MPE: percent of the maximal possible effect, agonist human α-CGRP.
Setting [6] is: agonist human α-CGRP, read-out: hCGRP-R IC50 Ave.

T2 sequence (Q16602 23-461): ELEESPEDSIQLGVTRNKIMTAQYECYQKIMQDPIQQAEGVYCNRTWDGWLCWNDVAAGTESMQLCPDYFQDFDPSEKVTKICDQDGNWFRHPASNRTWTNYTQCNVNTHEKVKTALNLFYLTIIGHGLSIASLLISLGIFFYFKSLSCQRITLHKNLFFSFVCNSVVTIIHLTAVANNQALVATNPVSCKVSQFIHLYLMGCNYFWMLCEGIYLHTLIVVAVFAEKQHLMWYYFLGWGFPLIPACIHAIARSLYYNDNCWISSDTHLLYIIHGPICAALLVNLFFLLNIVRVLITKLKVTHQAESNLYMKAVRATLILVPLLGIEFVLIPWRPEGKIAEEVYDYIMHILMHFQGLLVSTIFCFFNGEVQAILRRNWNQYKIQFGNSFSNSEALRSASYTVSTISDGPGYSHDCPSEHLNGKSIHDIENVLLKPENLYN
T2 sequence (O60894 27-148): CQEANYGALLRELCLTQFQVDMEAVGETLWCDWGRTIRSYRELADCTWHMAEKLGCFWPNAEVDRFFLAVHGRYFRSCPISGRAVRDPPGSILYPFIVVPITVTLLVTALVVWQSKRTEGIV
T1 sequence (Q16602 23-461): as the sequence (Q16602 23-461) above
T1 sequence (O60896 24-148): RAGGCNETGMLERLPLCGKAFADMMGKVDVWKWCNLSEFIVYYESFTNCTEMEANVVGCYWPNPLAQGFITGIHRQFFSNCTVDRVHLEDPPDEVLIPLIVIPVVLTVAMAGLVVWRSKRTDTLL

On to `Cc1cccnc1C(=O)N[C@@H](C(=O)N[C@@H](Cc1ccc(O)cc1)C(=O)N[C@H]1CSSC[C@@H](C(=O)N[C@@H](Cc2cccnc2)C(N)=O)NC(=O)[C@H](Cc2ccccc2)NC(=O)[C@@H]2CCCN2C(=O)CNC(=O)[C@H](C(C)C)NC(=O)[C@H](CC(=O)O)NC(=O)[C@H](CCCNC(=N)N)NC1=O)C(C)C` [Compound 34] (X12-[dV]YCRDVGPFC[3Pal]-NH2; disulfide 3-10), for which the Emax in assay [1] (setting [3]) and in assay [2] (setting [5]) was 100% throughout. The IC50 in assay [1] (setting [4]) was 7.9 nM; in assay [2] (setting [6]) it was 0.14 nM. Besides, the “selectivity ratio CGRP/AM2” value in assay [1] is 58.

Regarding `CC(C)[C@@H]1NC(=O)[C@H](CC(=O)O)NC(=O)[C@H](CCCNC(=N)N)NC(=O)[C@@H](NC(=O)[C@H](Cc2ccc(O)cc2)NC(=O)[C@H](NC(=O)c2ncc(F)cc2F)C(C)C)CSSC[C@@H](C(=O)N[C@@H](Cc2cccnc2)C(N)=O)NC(=O)[C@H](Cc2ccccc2)NC(=O)[C@@H]2CCCN2C(=O)CNC1=O` [Compound 35] ({Picolinoyl(3,5-F2)}-[dV]YCRDVGPFC[3Pal]-NH2; disulfide 3-10), the results for the Emax in assay [1] (setting [3]) and in assay [2] (setting [5]) were 101% and 100%, respectively. The IC50 in assay [1] (setting [4]) is 33 nM; in assay [2] (setting [6]), 0.06 nM. Moreover, the “selectivity ratio CGRP/AM2” value in assay [1] is recorded as 580.

In the case of `CC(C)[C@@H]1NC(=O)[C@H](CC(=O)O)NC(=O)[C@H](CCCNC(=N)N)NC(=O)[C@@H](NC(=O)[C@H](Cc2ccc(O)cc2)NC(=O)[C@H](NC(=O)c2ncccc2N)C(C)C)CSSC[C@@H](C(=O)N[C@@H](Cc2cccnc2)C(N)=O)NC(=O)[C@H](Cc2ccccc2)NC(=O)[C@@H]2CCCN2C(=O)CNC1=O` [Compound 36] (X9-[dV]YCRDVGPFC[3Pal]-NH2; disulfide 3-10), the Emax in assay [1] (setting [3]) is 101%; in assay [2] (setting [5]), 100%. In addition, the IC50 in assay [1] (setting [4]) was 16 nM; in assay [2] (setting [6]), 0.17 nM. Also, in assay [1], the “selectivity ratio CGRP/AM2” value is 93.

For `CC(C)[C@@H]1NC(=O)[C@H](CC(=O)O)NC(=O)[C@H](CCCNC(=N)N)NC(=O)[C@@H](NC(=O)[C@H](Cc2ccc(O)cc2)NC(=O)[C@H](NC(=O)c2cnc[nH]2)C(C)C)CSSC[C@@H](C(=O)N[C@@H](Cc2cccnc2)C(N)=O)NC(=O)[C@H](Cc2ccccc2)NC(=O)[C@@H]2CCCN2C(=O)CNC1=O` [Compound 37] (Imidazole4carbonyl-[dV]YCRDVGPFC[3Pal]-NH2; disulfide 3-10), the Emax in assay [1] (setting [3]) and in assay [2] (setting [5]) was 100% in each case. The IC50 was 379 nM in assay [1] (setting [4]) and 0.17 nM in assay [2] (setting [6]). Also, in assay [1], the “selectivity ratio CGRP/AM2” value was 2295.

In the case of `CC(C)NCCC[C@@H]1NC(=O)[C@@H](NC(=O)[C@H](Cc2ccccc2C(N)=O)NC(=O)[C@H](NC(=O)c2ccc(F)cn2)C(C)C)CSSC[C@@H](C(=O)N[C@@H](Cc2cccnc2)C(N)=O)NC(=O)[C@H](Cc2cccnc2)NC(=O)[C@@H]2C=CCN2C(=O)CNC(=O)[C@H](C(C)C)NC(=O)[C@H](CC(=O)O)NC1=O` [Compound 38, Picolinoyl(5-F)-D-Val-Phe(2-Cbm)-c(Cys-Orn(iPr)-Asp-Val-Gly-Dhp-3Pal-Cys)-3Pal-NH2] ({Picolinoyl(5-F)}-[dV][Phe(2-CONH2)]C[Orn(iPr)]DVG[ΔPro][3Pal]C[3Pal]-NH2; disulfide 3-10), the Emax is 101% in assay [1] (setting [3]) and 100% in assay [2] (setting [5]). The values for the IC50 in assay [1] (setting [4]) and in assay [2] (setting [6]) were 87 nM and 0.06 nM, respectively. The “selectivity ratio CGRP/AM2” value in assay [1] is on record as 1478.

For the molecule `CC(C)NCCC[C@@H]1NC(=O)[C@@H](NC(=O)[C@H](Cc2ccccc2C(N)=O)NC(=O)[C@H](NC(=O)c2ccc(F)cn2)C(C)C)CSSC[C@@H](C(=O)N[C@@H](Cc2cccnc2)C(N)=O)NC(=O)[C@H](Cc2cccnc2)NC(=O)[C@@H]2CCCN2C(=O)CNC(=O)[C@H](C(C)C)NC(=O)[C@H](CC(=O)O)NC1=O` [Compound 39, Picolinoyl(5-F)-D-Val-Phe(2-Cbm)-c(Cys-Orn(iPr)-Asp-Val-Gly-Pro-3Pal-Cys)-3Pal-NH2] ({Picolinoyl(5-F)}-[dV][Phe(2-CONH2)]C[Orn(iPr)]DVGP[3Pal]C[3Pal]-NH2; disulfide 3-10), the Emax in assay [1] (setting [3]) is 101%; in assay [2] (setting [5]), 100%. The values for the IC50 in assay [1] (setting [4]) and in assay [2] (setting [6]) were 275 nM and 0.13 nM, respectively. In assay [1], the “selectivity ratio CGRP/AM2” value is on record as 2125.

With `CC(C)NCCC[C@@H]1NC(=O)[C@@H](NC(=O)[C@H](Cc2ccccc2C(N)=O)NC(=O)[C@H](NC(=O)c2ncco2)C(C)C)CSSC[C@@H](C(=O)N[C@@H](Cc2cccnc2)C(N)=O)NC(=O)[C@H](Cc2cccnc2)NC(=O)[C@@H]2CCCN2C(=O)CNC(=O)[C@H](C(C)C)NC(=O)[C@H](CC(=O)O)NC1=O` [Compound 40, Oxazole-2-carbonyl-D-Val-Phe(2-Cbm)-c(Cys-Orn(iPr)-Asp-Val-Gly-Pro-3Pal-Cys)-3Pal-NH2] (Oxazole2carbonyl-[dV][Phe(2-CONH2)]C[Orn(iPr)]DVGP[3Pal]C[3Pal]-NH2; disulfide 3-10), the IC50 in assay [1] (hAM2-R IC50 Ave, agonist human adrenomedullin) is 980 nM; in assay [2] (hCGRP-R IC50 Ave, agonist human α-CGRP) it was 0.09 nM. The Emax in assay [1] is 98%; in assay [2], 100%. Moreover, the “selectivity ratio CGRP/AM2” value in assay [1] is listed as 10884.

`CC(C)NCCCC[C@@H]1NC(=O)[C@@H](NC(=O)[C@H](Cc2ccccc2C(N)=O)NC(=O)[C@H](NC(=O)c2ncco2)C(C)C)CSSC[C@@H](C(=O)N[C@@H](Cc2cccnc2)C(N)=O)NC(=O)[C@H](Cc2cccnc2)NC(=O)[C@@H]2CCCN2C(=O)CNC(=O)[C@H](C(C)C)NC(=O)[C@H](CC(=O)O)NC1=O` [Compound 41, Oxazole-2-carbonyl-D-Val-Phe(2-Cbm)-c(Cys-Lys(iPr)-Asp-Val-Gly-Pro-3Pal-Cys)-3Pal-NH2] (Oxazole2carbonyl-[dV][Phe(2-CONH2)]C[Lys(iPr)]DVGP[3Pal]C[3Pal]-NH2; disulfide 3-10): the Emax is 97% in assay [1] (setting [3]) and 100% in assay [2] (setting [5]). The IC50 in assay [1] (setting [4]) was 1020 nM; in assay [2] (setting [6]) it was 0.13 nM. Besides, the “selectivity ratio CGRP/AM2” value in assay [1] was 8075.

`CC(C)[C@@H]1NC(=O)[C@H](CC(=O)O)NC(=O)[C@H](CCNc2nc(N)n[nH]2)NC(=O)[C@@H](NC(=O)[C@H](Cc2ccccc2C(N)=O)NC(=O)[C@H](NC(=O)c2ncco2)C(C)C)CSSC[C@@H](C(=O)N[C@@H](Cc2cccnc2)C(N)=O)NC(=O)[C@H](Cc2cccnc2)NC(=O)[C@@H]2CCCN2C(=O)CNC1=O` [Compound 42, Oxazole-2-carbonyl-D-Val-Phe(2-Cbm)-c(Cys-Dab(Atz)-Asp-Val-Gly-Pro-3Pal-Cys)-3Pal-NH2] (Oxazole2carbonyl-[dV][Phe(2-CONH2)]C[Dab](Triazol3yl(1,2,4-5-NH2))DVGP[3Pal]C[3Pal]-NH2; disulfide 3-10): the Emax was 97% in assay [1] (setting [3]) and 100% in assay [2] (setting [5]).

As to `CC(C)NCCC[C@@H]1NC(=O)[C@@H](NC(=O)[C@H](Cc2ccccc2C(N)=O)NC(=O)[C@H](NC(=O)c2ncco2)C(C)C)CSSC[C@@H](C(=O)N[C@@H](Cc2cccnc2)C(N)=O)NC(=O)[C@H](Cc2cccc(CN)c2)NC(=O)[C@@H]2C=CCN2C(=O)CNC(=O)[C@H](C(C)C)NC(=O)[C@H](CC(=O)O)NC1=O` [Compound 43, Oxazole-2-carbonyl-D-Val-Phe(2-Cbm)-c(Cys-Orn(iPr)-Asp-Val-Gly-Dhp-Phe(3-CH2NH2)-Cys)-3Pal-NH2] (Oxazole2carbonyl-[dV][Phe(2-CONH2)]C[Orn(iPr)]DVG[ΔPro][Phe(3-CH2NH2)]C[3Pal]-NH2; disulfide 3-10), the Emax in assay [1] (setting [3]) is 101%; in assay [2] (setting [5]) it was 100%. Further, the IC50 was 180 nM in assay [1] (setting [4]) and 0.04 nM in assay [2] (setting [6]). For the same molecule, in assay [1], the “selectivity ratio CGRP/AM2” value is 4693.

As to `CC(C)[C@@H]1NC(=O)[C@H](CC(=O)O)NC(=O)[C@H](CCCNC(=O)[C@@H](N)CCCCN(C)C)NC(=O)[C@@H](NC(=O)[C@H](Cc2ccc(O)cc2)NC(=O)[C@H](NC(=O)c2ncco2)C(C)C)CSSC[C@@H](C(=O)N[C@@H](Cc2cccnc2)C(N)=O)NC(=O)[C@H](Cc2ccccc2)NC(=O)[C@@H]2CCCN2C(=O)CNC1=O` [Compound 44, Oxazole-2-carbonyl-D-Val-Tyr-c(Cys-Orn(Lys(Me2))-Asp-Val-Gly-Pro-Phe-Cys)-3Pal-NH2] (Oxazole2carbonyl-[dV]YC[Orn](Lys(Me2))DVGPFC[3Pal]-NH2; disulfide 3-10), the Emax in assay [1] (setting [3]) and in assay [2] (setting [5]) was 100% each time. The IC50 in assay [1] (setting [4]) is 114 nM; in assay [2] (setting [6]) it was 0.17 nM. For the same molecule, the “selectivity ratio CGRP/AM2” value in assay [1] was 668.

As for `CC(C)[C@@H]1NC(=O)[C@H](CC(=O)O)NC(=O)[C@H](CCCNC(=O)[C@@H](N)CCCCN(C)C)NC(=O)[C@@H](NC(=O)[C@H](Cc2ccc(O)cc2)NC(=O)[C@H](NC(=O)c2ccncn2)C(C)C)CSSC[C@@H](C(=O)N[C@@H](Cc2cccnc2)C(N)=O)NC(=O)[C@H](Cc2ccccc2)NC(=O)[C@@H]2CCCN2C(=O)CNC1=O` [Compound 45, Pyrimidine-4-carbonyl-D-Val-Tyr-c(Cys-Orn(Lys(Me2))-Asp-Val-Gly-Pro-Phe-Cys)-3Pal-NH2] (X6-[dV]YC[Orn](Lys(Me2))DVGPFC[3Pal]-NH2; disulfide 3-10), the figures for the Emax in assay [1] (setting [3]) and in assay [2] (setting [5]) were 98% and 100%, respectively. The IC50 in assay [1] (setting [4]) is 198 nM; in assay [2] (setting [6]) it was 0.18 nM. Also, the “selectivity ratio CGRP/AM2” value in assay [1] was 1082.
